From patent US20250171430A1, “PYRAZOLYL COMPOUNDS AS KV7 CHANNEL ACTIVATORS” (Biohaven Therapeutics Ltd., priority 2022, published 2025)

What follows are compounds tested against T1, Kv7.2/7.3 (Homo sapiens, UniProt O43525+O43526) (assay: Kv7.2/7.3 Activation Assay (Thallium Flux Assay)). Settings: hKV7.2/7.3 cell line; test compound at single concentration of 10 μM; fluorescence at 90 sec normalized to positive control (retigabine, 30 μM).
T1 construct: Kv7.2 tetracycline-induced, Kv7.3 constitutive
Assay type: cell-based
Outline: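 Single-point activity at 10 μM (0.1% DMSO, HEPES-buffered saline, pH 7.4) was scored from fluorescence at 90 s relative to 30 μM retigabine. Categories were none <0.15, moderate 0.15-0.7 and high >0.7. Thallium influx after stimulus addition was followed with FluxOR II Green dye in hKv7.2/7.3 cells, Kv7.2 expressed under overnight tetracycline (10 ng/mL) induction.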

| SMILES | Kv7.2/7.3 Activity |
| --- | --- |
| Cn1nc(NC(=O)C2(C)CC(F)(F)C2)c(C2CCC2)c1-c1ccc(F)c(F)c1 [Compound 201, N-(4-cyclobutyl-5-(3,4-difluorophenyl)-1-methyl-1H-pyrazol-3-yl)-3,3-difluoro-1-methylcyclobutane-1-carboxamide] | ++ (“++” High Activity ≥ 0.7) |
| Cn1nc(NC(=O)[C@H]2C[C@](C)(F)C2)c(C2CCC2)c1-c1ccc(F)cc1 [Compound 202, (1r,3r)-N-(4-cyclobutyl-5-(4-fluorophenyl)-1-methyl-1H-pyrazol-3-yl)-3-fluoro-3-methylcyclobutane-1-carboxamide] | ++ (“++” High Activity ≥ 0.7) |
| Cn1nc(NC(=O)[C@H]2C[C@](C)(F)C2)c(C2CCC2)c1-c1cnc(C(F)(F)F)s1 [Compound 203, (1r,3r)-N-(4-cyclobutyl-1-methyl-5-(2-(trifluoromethyl)thiazol-5-yl)-1H-pyrazol-3-yl)-3-fluoro-3-methylcyclobutane-1-carboxamide] | + (“+” Moderate Activity 0.15-0.7) |
| Cn1nc(NC(=O)C2CC3(C2)CC(F)(F)C3)c(C2CCC2)c1-c1ccc(F)cc1 [Compound 204, N-(4-cyclobutyl-5-(4-fluorophenyl)-1-methyl-1H-pyrazol-3-yl)-6,6-difluorospiro[3.3]heptane-2-carboxamide] | ++ (“++” High Activity ≥ 0.7) |
| Cn1nc(NC(=O)C2CSC2)c(C2CCC2)c1-c1ccc(F)cc1 [Compound 205, N-(4-cyclobutyl-5-(4-fluorophenyl)-1-methyl-1H-pyrazol-3-yl)thietane-3-carboxamide] | ++ (“++” High Activity ≥ 0.7) |
| Cn1nc(NC(=O)[C@H]2C[C@H]2F)c(C2CCC2)c1-c1ccc(F)cc1 [Compound 206, (1R,2R)-N-(4-cyclobutyl-5-(4-fluorophenyl)-1-methyl-1H-pyrazol-3-yl)-2-fluorocyclopropane-1-carboxamide] | + (“+” Moderate Activity 0.15-0.7) |
| Cn1nc(NC(=O)[C@H]2CC2(C)C)c(-c2ccc(F)cc2)c1C1CC(F)(F)C1 [Compound 207, (S)-N-(5-(3,3-difluorocyclobutyl)-4-(4-fluorophenyl)-1-methyl-1H-pyrazol-3-yl)-2,2-dimethylcyclopropane-1-carboxamide] | ++ (“++” High Activity ≥ 0.7) |
| Cn1nc(NC(=O)C2(C)CC(F)(F)C2)c(C2CCC2)c1-c1ccc(C(F)(F)F)cc1 [Compound 208, N-(4-cyclobutyl-1-methyl-5-(4-(trifluoromethyl)phenyl)-1H-pyrazol-3-yl)-3,3-difluoro-1-methylcyclobutane-1-carboxamide] | − (“−” No Activity < 0.15) |
| Cn1nc(NC(=O)C2CC(F)(F)C2)c(C2CCC2)c1-c1ccc(C(F)(F)F)cc1 [Compound 209, N-(4-cyclobutyl-1-methyl-5-(4-(trifluoromethyl)phenyl)-1H-pyrazol-3-yl)-3,3-difluorocyclobutane-1-carboxamide] | + (“+” Moderate Activity 0.15-0.7) |
| Cn1nc(NC(=O)C2(C)CC(F)(F)C2)c(C2CCC2)c1-c1ccc(Cl)s1 [Compound 210, N-(5-(5-chlorothiophen-2-yl)-4-cyclobutyl-1-methyl-1H-pyrazol-3-yl)-3,3-difluoro-1-methylcyclobutane-1-carboxamide] | ++ (“++” High Activity ≥ 0.7) |
| Cn1nc(NC(=O)NC2CC(F)(F)C2)c(C2CCC2)c1-c1ccc(Cl)s1 [Compound 211, 1-(5-(5-chlorothiophen-2-yl)-4-cyclobutyl-1-methyl-1H-pyrazol-3-yl)-3-(3,3-difluorocyclobutyl)urea] | ++ (“++” High Activity ≥ 0.7) |
| Cn1nc(NC(=O)NC2CC(F)(F)C2)c(C2CCC2)c1-c1ccc(F)cc1 [Compound 212, 1-(4-cyclobutyl-5-(4-fluorophenyl)-1-methyl-1H-pyrazol-3-yl)-3-(3,3-difluorocyclobutyl)urea] | + (“+” Moderate Activity 0.15-0.7) |
